Key:
caspase cascade [1] = experiment: Activation of the caspase cascade and induction of apoptosis in cells (earlier Cai et al. applications); assay type: cell-based; settings: typically
caspase cascade [2] = settings: as described in Ser. No. 10/164,705 and 60/433,953; cited from earlier work
GST-Tip47 = target: T1, GST-Tip47 (Homo sapiens, UniProt O60664, I56V/V275A); experiment: Binding of tritiated compound to GST-Tip47 immobilized on anti-GST Protein A Sepharose, scintillation counting; settings: 2 μM compound, 1 hour room temperature, TBS pH 8.0, FIG. 1A
T1 construct: Full-length Tip47 cDNA was cloned into the pGEX-4T-1; made in house; host or cells: E. coli BL-21
T1 sequence (O60664 1-434 I56V/V275A): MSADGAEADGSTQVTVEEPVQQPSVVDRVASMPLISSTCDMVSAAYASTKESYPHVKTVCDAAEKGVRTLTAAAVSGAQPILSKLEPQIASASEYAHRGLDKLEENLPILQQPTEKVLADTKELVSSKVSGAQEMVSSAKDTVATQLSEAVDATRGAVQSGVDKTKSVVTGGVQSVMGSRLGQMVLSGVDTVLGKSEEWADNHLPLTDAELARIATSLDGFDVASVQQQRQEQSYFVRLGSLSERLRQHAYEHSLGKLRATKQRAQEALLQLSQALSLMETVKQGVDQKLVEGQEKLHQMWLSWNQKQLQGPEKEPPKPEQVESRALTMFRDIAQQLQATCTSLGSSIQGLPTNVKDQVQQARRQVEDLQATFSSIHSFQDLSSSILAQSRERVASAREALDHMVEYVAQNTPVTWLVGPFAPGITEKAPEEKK
Method: 2 μM 3-(3,5-ditritium-4-azidophenyl)-5-(3-chloro-thiophen-2-yl)-[1,2,4]-oxadiazole (Example 3) was added to either Protein A Sepharose only, Protein A Sepharose plus anti-GST antibody, anti-GST/Protein A Sepharose plus GST only, or anti-GST/Protein A Sepharose plus GST-Tip47. After TBS washes, eluate was counted on a scintillation counter.
Full-length Tip47 cDNA was cloned into the pGEX-4T-1, a glutathione S-transferase (GST) gene fusion system (Amersham, Piscataway, N.J.) using standard methods. Briefly, PCR primers to the 5′ and 3′ region of the gene were designed to contain restriction sites that allowed for the in frame cloning of Tip47 into the pGEX-4T-1 vector. Subsequent to sequence verification, the pGEX-Tip47 construct was transformed into the E.Coli BL-21 strain.
In order to perform binding studies on Tip47, GST-Tip47 was immobilized on Sepharose. To begin, 10 μg of anti-GST antibody (cat. # sc-459, rabbit polyclonal, Santa Cruz Biotechnology, Santa Cruz, Calif.) was incubated with 20 μl of protein A Sepharose (Zymed, South San Francisco, Calif.), in TBS (pH 8.0), total volume 200 μl, for 1 hour at room temperature. Beads were washed 3 times with TBS (pH 8.0). […] Eluates were added to 5 ml of scintillation cocktail and counted using ^3H protocol. […]

Tail Interacting Protein = target: T2, Tail Interacting Protein (Homo sapiens, UniProt O60664, I56V/V275A); experiment: Photo-affinity radiolabeling of T47D cytosol, two-dimensional gel and autoradiography; assay type: binding; settings: 200 nM compound, 300 μg T47D cytosol, UV 254 nm 10 minutes
T2 construct: This supernatant is T47D cytosol; endogenous in cells; host or cells: T47D breast cancer cells
T2 sequence (O60664 1-434 I56V/V275A): T1 sequence (O60664 1-434 I56V/V275A)
Method: Isolation of Tail Interacting Protein from Cell Extracts by Photo-affinity Radiolabeling: T47D breast cancer cell line was grown in RPMI 1640 medium containing 25 mM Hepes and L-glutamine (Gibco) supplemented with 10% FCS and penicillin/streptomycin. 8×10^6 T47D cells in 25 mL medium were plated on a 100 mm dish and grown overnight in RPMI medium supplemented with 10% FCS and penicillin/streptomycin. Cells were scraped with Cell lifter (Fisher) into a conical tube and centrifuged for 5 minutes at 450×g. Cells were washed one time with 1 mL PBS (1,160×g for 3 minutes) and then resuspended in 0.25 mL Cell Lysis Buffer (CLB) (10 mM HEPES, pH 7.2, 10 mM NaCl, 1 mM KH2PO4, 5 mM NaHCO3, 1 mM CaCl2, 0.5 mM MgCl2, 5 mM EDTA) plus 0.1% Protease Inhibitor Cocktail (Sigma). Cells were allowed to swell 5 minutes at room temperature and then homogenized using Dounce homogenizer and Type A pestle (tight) 50 times on ice. After centrifugation at 2,200×g, for 5 minutes, 4° C., the supernatant was spun at 108,000×g, for 40 minutes at 4° C. This supernatant is T47D cytosol. Protein concentration is determined by BioRad DC assay.
300 μg T47D cytosol in 100 μL CLB was added in the well of a 96-well plate. […]

Tip47 = target: T3, Tip47 (Homo sapiens, UniProt O60664, I56V/V275A); experiment: Photolabeling of T47D cytosol, immunoprecipitation with anti-Tip47, SDS-PAGE and autoradiography; assay type: binding; settings: T47D cytosol labeled with 20 nM compound, UV 254 nm, anti-fibronectin as control, FIG. 1B
T3 construct: This supernatant is T47D cytosol; endogenous in cells; host or cells: T47D breast cancer cells
T3 sequence (O60664 1-434 I56V/V275A): T1 sequence (O60664 1-434 I56V/V275A)
Method: T47D cytosol was labeled with 20 nM 3-(3,5-ditritium-4-azidophenyl)-5-(3-chloro-thiophen-2-yl)-[1,2,4]-oxadiazole (Example 3) and immunoprecipitated with anti-fibronectin (as a control) or anti-Tip47. The immunoprecipitated complex was subject to SDS-PAGE and autoradiography.
For immunoprecipitations, T47D cells were first washed in PBS and then resuspended in CLB Buffer (10 mM HEPES, 10 mM NaCl, 1 mM KH2PO4, 5 mM NaHCO3, 1 mM CaCl2, 0.5 mM MgCl2, 5 mM EDTA) plus 0.1% protease inhibitor cocktail (Sigma, St. Louis, Mo.). Cells were allowed to swell in 5 minutes at room temperature and then were homogenized in a tight fitting Dounce homogenizer with 50 strokes. Lysate was spun 2,200×g, 5 minutes, at 4° C. The supernatant was then spun at 100,000×g, 40 minutes at 4° C. This resulting supernatant was called T47D cytosol. Protein concentration determined by the D/C Protein Assay (Bio-Rad, Hercules, Calif.).
20 riM 3-(3,5-ditritium-4-azidophenyl)-5-(3-chloro-thiophen-2-yl)-[1,2,4]-oxadiazole (Example 3) (stock is 20 μM, 1 mCi/ml, 50 Ci/mmol) was added to 1 mg T47D cytosol in 1 ml CLB Buffer and incubated, rocking, for 30 minutes at room temperature. Lysates were then exposed to a Short Wave UV Source (254 nm) for 10 minutes.
Labeled lysates were pre-cleared with 50 μl solution of Protein A Sepharose (Zymed, South San Francisco, Calif.) for 2 hours at 4° C. […]

cyclin D1 = experiment: Realtime PCR of mRNA levels in compound-treated T47D cells; assay type: cell-based; settings: 5 μM, 18 h, versus DMSO, FIG. 2
Method: FIG. 2: The effect of 5-(3-chlorothiophen-2-yl)-3-(5-chloro-pyridin-2-yl)-[1,2,4]-oxadiazole on mRNA levels of genes of interest. T47D cells were treated for 18 h with 5 μM of 5-(3-chlorothiophen-2-yl)-3-(5-chloro-pyridin-2-yl)-[1,2,4]-oxadiazole or DMSO and total RNA was then isolated. mRNA levels of TGFbeta, p21, cyclin D1, IGF2R, and IGFBP3 were quantitated using realtime PCR as fold change of treatment/control.
For cDNA synthesis and quantitative PCR, total RNA was extracted using the TRIzol reagent (Invitrogen Corporation, Carlsbad, Calif.) according to the manufacturer's instructions. Total RNA was quantitated, denatured, and electrophoresed in an agarose-formaidehyde gei to determine integrity of total RNA. 2 μg of total RNA was then used to make cDNA by reverse transcription using the Retroscript cDNA synthesis kit (Ambion Austin, Tex.) according to the manufacturer's instructions. Quantitative PCR was done by Sybrgreen incorporation using the Quantitect kit (Qiagen, Valencia, Calif.) on the LightCycler (Roche Molecular Biochemicals, Mannheim, Germany) using standard conditions. Data was normalized against the housekeeping gene, cyclophilin. The cells transfected with cyclophilin as a control was normalized against glyceraldehyde phosphate dehydrogenase (GAPD).

In the case of `[N-]=[N+]=Nc1ccc(-c2noc(-c3sccc3Cl)n2)cc1` [3-(4-Azidophenyl)-5-(3-chloro-thiophen-2-yl)-[1,2,4]-oxadiazole], the “Time to induction of apoptosis in cells upon binding to TIPRAIP” value (caspase cascade [1]) is given as 24 to 48 h and the “Activation of the caspase cascade and of apoptosis” value (caspase cascade [2]) is given as “potent and highly efficacious activators of the caspase cascade”.

With `[3H]c1cc(-c2noc(-c3sccc3Cl)n2)cc([3H])c1N=[N+]=[N-]` [Example 3, 3-(3,5 -Ditritium-4-azidophenyl)-5-(3-chloro-thiophen-2-yl)-[1,2,4]-oxadiazole] the “Binding to GST-Tip47 immobilized on α-GST-Protein A-Sepharose” value (GST-Tip47) was “binding to GST-Tip47”, the “Radiolabeled protein on 2-D gel autoradiography” value (Tail Interacting Protein) was “single radiolabeled spot” and the “Binding to immunoprecipitated Tip47 from cell lysates” value (Tip47) was “binding to immunoprecipitated Tip47”.

In the case of `Clc1ccc(-c2noc(-c3sccc3Cl)n2)nc1` [compound A, 5-(3-chlorothiophen-2-yl)-3-(5-chloro-pyridin-2-yl)-[1,2,4]-oxadiazole], the “Gene expression profile: cyclin D1 mRNA level” value (cyclin D1) is reported as “down regulation of cyclin D1”.

— patent publication US20050004005A1, “Methods of treating diseases responsive to Induction of Apoptosis” (priority 2003, published 2005)
